{"source": "patent US3963758A", "about": "“2-(Benzofuroyl)phenyl acetic acids” (Serdex - Societe d'Etudes, de Recherches, de Diffusion et …, priority 1973, dated 1976)", "key": {"[1]": {"system": "phenylbenzoquinone-induced writhing movements", "experiment": "Analgesic activity, Siegmund Test (phenylbenzoquinone writhing)", "type": "in vivo", "conditions": "mice; for Siegmund ED50 / ED50: test material 1 hour before phenylbenzoquinone i.p.; for ED50: Mus musculus, ip", "experimental": "Siegmund Test (Proc. Soc. Exp. Biol. Med., 1957, 95, 729-31)\nIntraperitoneal injection of 0.25 ml of an aqueous-alcoholic 2-phenyl-1,4-benzoquinone solution at a concentration of 0.02% induces in mice a specific syndrome characterized by the stretching of the hind paws and writhing movements of the trunk.\nThe tests are carried out with homogeneous lots of 20-30 mice having an average weight of 20 g.\nThe animals are administered the test material at time zero. One hour later, phenylbenzoquinone is administered by the intraperitoneal route. The animals are individually kept under observation during 5 minutes, between the fifth and the tenth minute after phenylbenzoquinone injection.\nThe present activity of the test material is evaluated by comparing the number of writhing movements of the treated animals with respect to the reference animals."}, "[2]": {"system": "Turfyl nicotinate (Trafuril)-induced erythema", "experiment": "Turfyl nicotinate (Trafuril)-induced erythema", "type": "in vivo", "conditions": "oral, male albino guinea-pigs; for Trafuril ED50 / ED50: 1 hour prior to test; for ED50: Cavia porcellus", "experimental": "2 - Turfyl nicotinate (Trafuril) -induced erythema\nA slight modification of the HAINING method (Br. Jl. Pharmacol., 1963, 21, 104-12) is used:\nThe test is carried out with homogeneous lots of 6-12 male albino guinea-pigs weighing 300-400 g, after careful depilation of the skin of their backs on the previous day.\nOn the day of the test, a disk for antibiotic sensitivity determination impregnated with a 5% alcoholic Turfyl nicotinate solution is applied during one minute on the lumbar area.\nThe effect produced is recorded after five minutes.\nThe results are rated according to an \"all or nothing\" scale, according to whether or not an erythema appears at the locus of application of the disk.\nThe treatment is administered orally one hour prior to the test, under an uniform volume of 1 ml/kg body weight; the test materials are homogeneously suspended with 3% gum arabic.\nThe reference animals are administered an equal volume of carrier.\nThe percent erythema obtained in the treated animals is compared with that obtained in the simultaneously tested reference lot."}, "[3]": {"system": "carrageenin-induced edema", "experiment": "Acute carrageenin-induced edema", "type": "in vivo", "conditions": "oral, male rats; for Carrageenin-induced edema ED50 / ED50: 1 hour prior to carrageenin, edema at 3 hours; for Carrageenin-induced edema ED50: 180 min; for ED50: Rattus norvegicus; for Carrageenin-induced edema percent protection: 3 hours", "experimental": "c. Anti-inflammatory activity\n1- Acute carrageenin-induced edema (Winster C. A., Risley E. A., Nuss G.W., Proc. Soc. Biol. Med., 1962, 3, 544-7)\nSubplantar injection in the paw of rats of 0.05 ml of an aqueous gel containing 1% carrageenin induces a local edema which may be measured by means of an electric mercury plethysmometer.\nDetermination of the volume of the forepaw prior, and three hours after the carrageenin injection, makes it possible to calculate the percent inflammation.\nThe treatment is administered orally, one hour prior to carrageenin administration.\nThe tests are conducted only with homogeneous lots of 10 male rats weighing 180 g ± 10 g.\nThe resulting edema is evaluated for each animal by means of the ratio: [formula] in which:\nVo of the paw at time 3 hrs Vo = volume of the paw at time zero\nThe protection noted under the effect of the test material may be evaluated by comparing the percent edema determined in the treated lot with respect to the reference lot."}, "[4]": {"experiment": "Acute toxicity, oral, mice", "conditions": "mouse, in vivo, fasting mice, 14 days observation", "experimental": "(§1) Acute toxicity is determined by oral administration of the test material in fasting mice and rats.\n(§2) The compound of Example 1 is homogeneously suspended in a carrier comprising a 3% gum arabic solution.\n(§3) The animals are kept under observation during 14 days after the treatment."}, "[5]": {"system": "Bradykinine-induced bronchoconstriction", "experiment": "Anti-bradykinine activity (Konzett and Rossler technique)", "type": "in vivo, guinea-pig", "conditions": "I.V., dosage of 100 γ/kg; bradykinine 20 γ/kg I.V.", "excerpt": "c. Anti-bradykinine activity\nThe antagonistic action of the compound described in Example 1 was studied with respect to a Bradykinine-induced bronchoconstriction in guinea-pig (20 γ/kg I.V.).\nThe technique used was the conventional technique described by KONZETT and ROSSLER (Arch. Exp. Path. Pharmakol., 195, 71-74) and later by HARICHAUX (C.R. Soc. Biol., 158, 12, 2437-2441)."}, "[6]": {"system": "adjuvant arthritis (Mycobacterium butyricum)", "experiment": "Adjuvant arthritis", "type": "in vivo", "conditions": "at 20 mg/kg; oral, daily, 14th to 28th day; male rats", "experimental": "According to the works by PEARSON C. M. (J. Chronic. Dis., 1963, 16, 863-74), JONES R. D. and WARD J. R. (Recent progress in hormone research, vol. XIX, 1963, Ac. Press), WARD T. R., JONES R. S. (Arthritis and Rheumatism, 1962, 5, 557-64).\nThe tests are carried out in male rats weighing 151 g ± 20 g. On day 0, the animals are given intradermally, at the base of the tail, an 0.05 ml injection of a suspension of Mycobacterium butyricum in paraffin oil (12 mg killed microbial bodies/ml). The animals are selected on the 14th day and are distributed into homogeneous lots of 15 animals.\nThe treatment is administered orally, daily, from the 14th to the 28th day.\nThe chronic arthritis is evaluated according to two criteria:\nArthritis index, by separate scoring of the injuries (erythema, edema, distortions) of each of the four limbs (according to a scoring scale from 0 to 3; maximum score: 12) in each animal on the 14th day, the 18th day, the 21st day, the 24th day and the 28th day (the scoring is effected blind, by two different experimenters).\nSedimentation rate according to KOWARSKI (pipette held at an angle of 45°; recording time: 30 minutes).\nThe blood sample is taken by the retro-orbicular route. The determination is effected on the 14th, the 21st and the 28th day. […]"}, "[7]": {"experiment": "Acute toxicity, oral, rats", "conditions": "rat, in vivo, fasting rats, 14 days observation", "experimental": "as §1, §2, §3"}}, "data": [{"smiles": "CC(C(=O)O)c1cccc(C(=O)c2cc3ccccc3o2)c1", "note": "(stereo not drawn) [Example 9, d-2-[3-(2-Benzofuroyl)-phenyl]propionic acid]", "values": [{"measurement": "Siegmund ED50", "setting": "[1]", "result": "< 6", "unit": "mg/kg"}, {"measurement": "Trafuril ED50", "setting": "[2]", "result": 2.3, "unit": "mg/kg"}, {"measurement": "Carrageenin-induced edema ED50", "setting": "[3]", "result": 8, "unit": "mg/kg"}]}, {"smiles": "CC(C(=O)O)c1cccc(C(=O)c2cc3ccccc3o2)c1", "note": "(racemic) [Example 1, 2-[3-(2-benzofuroyl)-phenyl]-propionic acid]", "values": [{"measurement": "LD50 at 336 h", "setting": "[4]", "result": 2500, "unit": "mg/kg"}, {"measurement": "ED50", "setting": "[1]", "result": 0.72, "unit": "mg/kg"}, {"measurement": "ED50", "setting": "[2]", "result": 3.6, "unit": "mg/kg"}, {"measurement": "Inhibition of bradykinine-induced bronchospasm", "setting": "[5]", "result": "inhibited"}, {"measurement": "Activity in adjuvant arthritis", "setting": "[6]", "result": "active"}, {"measurement": "LD50 at 336 h", "setting": "[7]", "result": 1300, "unit": "mg/kg"}, {"measurement": "ED50", "setting": "[3]", "result": 9, "unit": "mg/kg"}]}, {"smiles": "Cc1c(C(=O)c2ccc(CC(=O)O)cc2)oc2ccccc12", "note": "[Example 5, 4-[2-(3-Methyl-benzofuroyl)]-phenyl acetic acid]", "values": [{"measurement": "Siegmund percent protection", "setting": "[1]; 50 mg", "result": 14, "unit": "%"}, {"measurement": "Carrageenin-induced edema percent protection", "setting": "[3]; 100 mg", "result": 15, "unit": "%"}]}, {"smiles": "O=C(O)Cc1ccc(C(=O)c2cc3ccccc3o2)cc1", "note": "[Example 2, [4-(2-benzofuroyl)-phenyl]acetic acid]", "values": [{"measurement": "Siegmund percent protection", "setting": "[1]; 50 mg", "result": 28, "unit": "%"}, {"measurement": "Carrageenin-induced edema percent protection", "setting": "[3]; 50 mg", "result": 15, "unit": "%"}]}, {"smiles": "CC(C(=O)O)c1ccc(C(=O)c2cc3ccccc3o2)cc1", "note": "(stereo not shown) [Example 4, 2-[4-(2-Benzofuroyl)-phenyl]propionic acid]", "values": [{"measurement": "ED50", "setting": "[1]", "result": 5, "unit": "mg/kg"}, {"measurement": "ED50", "setting": "[2]", "result": 115, "unit": "mg/kg"}, {"measurement": "ED50", "setting": "[3]", "result": 170, "unit": "mg/kg"}]}, {"smiles": "CC(C(=O)O)c1cccc(C(=O)c2cc3ccccc3o2)c1", "note": "(stereo not drawn) [Example 10, l-2-[3-(2-Benzofuroyl)-phenyl]propionic acid]", "values": [{"measurement": "Siegmund ED50", "setting": "[1]", "result": "< 6", "unit": "mg/kg"}, {"measurement": "Trafuril ED50", "setting": "[2]", "result": 8, "unit": "mg/kg"}, {"measurement": "Carrageenin-induced edema ED50", "setting": "[3]", "result": "~11.5", "unit": "mg/kg"}]}, {"smiles": "O=C(O)Cc1cccc(C(=O)c2cc3ccccc3o2)c1", "note": "[Example 3, [3-(2-Benzofuroyl)-phenyl]acetic acid]", "values": [{"measurement": "Siegmund percent protection", "setting": "[1]; 10 mg", "result": 32, "unit": "%"}, {"measurement": "Siegmund percent protection", "setting": "[1]; 50 mg", "result": 50, "unit": "%"}, {"measurement": "Trafuril percent protection", "setting": "[2]; 100 mg", "result": 17, "unit": "%"}, {"measurement": "Carrageenin-induced edema percent protection", "setting": "[3]; 100 mg", "result": 10, "unit": "%"}]}, {"smiles": "COc1ccc2oc(C(=O)c3cccc(C(C)C(=O)O)c3)cc2c1", "note": "(stereo not shown) [Example 7]", "values": [{"measurement": "ED50", "setting": "[1]", "result": "< 60", "unit": "mg/kg"}, {"measurement": "ED50", "setting": "[3]", "result": "< 20", "unit": "mg/kg"}]}, {"smiles": "COc1ccc(C(C)C(=O)O)cc1C(=O)c1cc2ccccc2o1", "note": "(stereo not shown) [Example 6, 2-[3-(2-benzofuroyl)-4-methoxy-phenyl]propionic acid]", "values": [{"measurement": "ED50", "setting": "[1]", "result": "~15", "unit": "mg/kg"}, {"measurement": "ED50", "setting": "[3]", "result": "> 20", "unit": "mg/kg"}]}]}
